Laboratory results: paper PMC9530166, “Allosteric regulation of glycogen breakdown by the second messenger cyclic di-GMP” (Nature Communications, 2022)
“Also recorded” adds a separate entry of the source.

Tests used:
His6-GlgXDETR(49-52) [1] = test: DRaCALA with [32P]-c-di-GMP, RETD49-52 swap mutant; type: binding, Streptomyces venezuelae; conditions: His6-GlgXDETR(49-52) mutant
Method: (§1) For DRaCALA assays, purified His6-GlgX (15 μg) was mixed with 0.5 μl undiluted [^32P]-c-di-GMP (42 nM) (Hartmann Analytic GmbH, Braunschweig) in binding buffer (25 mM Tris pH 8; 150 mM NaCl; 2.5% (v/v) glycerol; 5 mM MgCl2) and the reaction was incubated at rt for 5 min. For competition assays, 100 μM nonlabeled nucleotides were added to the samples and incubated at rt for 5 min prior to the addition of [^32P]-c-di-GMP. Reactions (10 μl) were spotted on the same nitrocellulose membrane (Roth), air dried for 10 min and analyzed via phosphorimaging.
(§2) 217 Supplementary Fig. 5: NanoDSF assays with mutagenized His6-GlgX variants. (a) Swap of the
(§3) 219 This was confirmed by DRaCALA, right. For DRaCALA assays, 15 µg of purified E. coli His6-GlgX
(§4) 220 or His6-Vnz25270, respectively, were mixed with 0.5 µl of [32P]-c-di-GMP (Hartmann Analytic
(§5) 221 GmbH, Braunschweig) in binding buffer (25 mM Tris pH 8.0, 150 mM NaCl, 2.5% (v/v) glycerol
222 and 5 mM MgCl2). 10 µl of the reactions were spotted on the same nitrocellulose membrane (Roth),
223 air dried for 10 min and analyzed by phosphorimaging. (b) Changing the RLVD motif (amino acids
(§6) (1 picture or pasted object on this page, not shown here)

His6-GlgXDETR(49-52) [2] = test: nanoDSF thermal shift assay, RETD49-52 swap mutant; type: binding, Streptomyces venezuelae; conditions: His6-GlgXDETR(49-52) mutant
Method: (§7) Arginine and aspartic acid arranged in an RxxD motif are often found as c-di-GMP binding signatures in effector proteins[28],[34]. […] To determine if either of these motifs are involved in c-di-GMP binding, we swapped the arginine and aspartic acid residues in the two motifs and purified His6-GlgXDETR(49-52) and His6-GlgXDLVR(212-215).
(§8) For label-free thermal shift assay experiments, 10 μM purified protein in 25 mM Tris pH 8, 150 mM NaCl, 2.5% (v/v) glycerol, and 5 mM MgCl2 was incubated without or with (1 mM) of nonlabeled c-di-GMP or c-di-AMP, respectively, at rt for 10 min. Reactions were subsequently analyzed in a Tycho NT.6 (NanoTemper Technologies) device with a 30 K/min thermal ramp and the internal fluorescence at 330 and 350 nm was recorded. Data analysis and calculation of derivatives was done using the internal evaluation features of the Tycho instrument.
as §2, §3, §4, §5
(§9) 222 and 5 mM MgCl2). […]
(§10) 223 air dried for 10 min and analyzed by phosphorimaging. […]

GlgX = GlgX (Streptomyces venezuelae, UniProt F2RAW5); test: Microscale thermophoresis (MST); type: binding; conditions: 40 nM RED-NHS labeled GlgX, unlabeled c-di-GMP, n=2
Sequence of GlgX (F2RAW5 entry or part of it): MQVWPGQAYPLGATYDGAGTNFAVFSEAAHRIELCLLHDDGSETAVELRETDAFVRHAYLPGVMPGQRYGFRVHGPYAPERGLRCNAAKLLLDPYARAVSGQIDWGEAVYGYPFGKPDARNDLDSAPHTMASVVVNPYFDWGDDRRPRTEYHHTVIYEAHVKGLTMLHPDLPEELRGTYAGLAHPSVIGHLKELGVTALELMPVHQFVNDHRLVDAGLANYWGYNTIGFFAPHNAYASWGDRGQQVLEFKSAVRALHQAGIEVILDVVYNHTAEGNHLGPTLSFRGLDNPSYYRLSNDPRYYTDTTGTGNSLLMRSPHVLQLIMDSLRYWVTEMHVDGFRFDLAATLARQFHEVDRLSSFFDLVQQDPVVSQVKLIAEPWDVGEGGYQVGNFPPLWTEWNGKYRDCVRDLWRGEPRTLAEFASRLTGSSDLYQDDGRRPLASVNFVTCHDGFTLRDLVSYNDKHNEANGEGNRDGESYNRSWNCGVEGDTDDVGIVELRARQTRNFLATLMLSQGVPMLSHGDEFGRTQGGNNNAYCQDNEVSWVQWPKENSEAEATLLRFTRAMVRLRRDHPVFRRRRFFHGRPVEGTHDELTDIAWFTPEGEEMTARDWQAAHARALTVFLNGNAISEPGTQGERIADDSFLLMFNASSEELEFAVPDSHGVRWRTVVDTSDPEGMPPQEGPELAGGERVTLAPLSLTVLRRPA
Method: For MST experiments, purified GlgX was labeled using Monolith NT protein labeling kit RED-NHS (amine reactive) dye (NanoTemper Technologies GmbH) according to manufacturer´s guidelines. The protein concentration was adjusted to 20 μM in labeling buffer and the labeling reaction was carried out at rt for 30 min in the dark. Excess fluorescence dye was subsequently removed from the labeled protein by gel filtration using a dye removal column provided by the supplier and equilibrated with MST buffer (25 mM Tris pH 8, 150 mM NaCl, 2.5% (v/v) glycerol, 5 mM MgCl2, 0.05% (v/v) Tween). A UV/VIS spectrophotometry at 650 and 280 nm was used to determine the degree of labeling. Next, labeled GlgX was adjusted to 80 nM in MST buffer and a series of 16 1:2 dilutions of c-di-GMP (BioLog) were prepared using the same buffer. An equal volume of protein and c-di-GMP dilutions were mixed resulting in 16 samples with 40 nM protein each and c-di-GMP concentrations ranging from 2 mM to […]. Samples were then loaded into Monolith NT.115 Premium Capillaries (NanoTemper Technologies) and MST was measured using a Monolith NT.115 instrument (NanoTemper Technologies). Instrument parameters were set to 20% LED power and 40% MST power and the data were analyzed using MO.Affinity Analysis software version 2.3; NanoTemper Technologies. […]

His6-GlgXEC = target: T1, His6-GlgXEC (Escherichia coli, UniProt P15067); test: DRaCALA with [32P]-c-di-GMP, E. coli GlgX; type: binding; conditions: 15 µg E. coli His6-GlgX
T1 construct: made in house; host or cells: E. coli Rosetta (DE3), pET15b
T1 sequence (P15067 whole entry): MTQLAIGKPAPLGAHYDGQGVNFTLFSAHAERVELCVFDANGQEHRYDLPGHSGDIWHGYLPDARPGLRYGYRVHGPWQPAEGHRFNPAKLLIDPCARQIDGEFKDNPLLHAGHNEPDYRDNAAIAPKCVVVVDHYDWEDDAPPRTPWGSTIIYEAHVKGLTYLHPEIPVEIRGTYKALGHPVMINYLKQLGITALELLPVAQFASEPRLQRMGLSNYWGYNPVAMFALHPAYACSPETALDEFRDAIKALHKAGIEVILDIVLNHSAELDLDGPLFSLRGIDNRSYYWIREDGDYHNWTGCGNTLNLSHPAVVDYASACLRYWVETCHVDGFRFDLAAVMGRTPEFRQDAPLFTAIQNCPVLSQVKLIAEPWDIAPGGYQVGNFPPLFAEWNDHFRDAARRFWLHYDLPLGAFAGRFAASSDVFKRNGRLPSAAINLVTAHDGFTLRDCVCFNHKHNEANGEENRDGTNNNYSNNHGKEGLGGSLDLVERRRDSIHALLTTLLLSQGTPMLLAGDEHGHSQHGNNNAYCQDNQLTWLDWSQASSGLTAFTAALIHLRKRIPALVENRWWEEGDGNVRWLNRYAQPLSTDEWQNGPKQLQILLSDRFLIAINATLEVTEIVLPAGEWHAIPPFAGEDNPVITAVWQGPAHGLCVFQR
Method: as §1
(a) 15 µg of purified E. coli His6-GlgX
167 or His6-Vnz25270, respectively, were mixed with 0.5 µl of [32P]-c-di-GMP (Hartmann Analytic
168 GmbH, Braunschweig) in binding buffer (25 mM Tris pH 8.0, 150 mM NaCl, 2.5% (v/v) glycerol
169 and 5 mM MgCl2). 10 µL of the reactions were spotted on the same nitrocellulose membrane (Roth),
170 air dried for 10 min and analyzed by phosphorimaging. (b, c) 10 µM purified His6-Vnz25270 (b) or
171 His6-GlgXE.coli (c) in 25 mM Tris pH 8.0, 150 mM NaCl, 2.5% (v/v) glycerol and 5 mM MgCl2 were
172 incubated without or with (1 mM) c-di-GMP. Reactions were analyzed in a Tycho NT.6
173 (NanoTemper Technologies) device.
as §6

His6-GlgXDLVR(212-215) = test: nanoDSF thermal shift assay, RLVD212-215 swap mutant; type: binding, Streptomyces venezuelae; conditions: His6-GlgXDLVR(212-215) mutant
Method: as §7, §8, §2, §3, §4, §5, §9, §10

Compound: Nc1nc2c(ncn2[C@@H]2O[C@@H]3CO[P@](=O)(O)O[C@H]4[C@@H](O)[C@H](n5cnc6c(=O)[nH]c(N)nc65)O[C@@H]4CO[P@](=O)(O)O[C@H]3[C@H]2O)c(=O)[nH]1 [c-di-GMP, bis-(3′−5′)-cyclic diguanosine monophosphate]
- binding of c-di-GMP in DRaCALA (His6-GlgXDETR(49-52) [1]): does not bind c-di-GMP
- effect of c-di-GMP in nanoDSF (His6-GlgXDETR(49-52) [2]): abolishes c-di-GMP binding; also recorded: no effect
- Kd (GlgX): 8.3 µM
- binding of [32P]-c-di-GMP in DRaCALA (His6-GlgXEC): did not detect any interactions
- shift in melting/unfolding temperature by c-di-GMP (His6-GlgXDLVR(212-215)): still allows ligand binding; also recorded: still caused a shift
